Assay results taken from patent US9278942B2, “Non-steroidal compounds as androgen receptor modulators” (FLX Discoveries Oy, priority 2011, dated 2016).
Where two headings read alike, the source gives them in different places.

How the values were obtained:
[1] = target: T1, human AR (Homo sapiens, UniProt P10275); assay: Competitive AR binding assay against [3H]-R1881 in transiently transfected COS-1 cells; conditions: compound 13.4 μM, [3H]-R1881 1.34 nM, complete inhibition equals 100%; for inhibition at 13.4 µM: read-out: Inhibition of [3H]-R1881 binding at 1.34 nM ± S.D.
T1 construct: expressed in transfected cells; host or cells: COS-1
T1 sequence (P10275 1-920): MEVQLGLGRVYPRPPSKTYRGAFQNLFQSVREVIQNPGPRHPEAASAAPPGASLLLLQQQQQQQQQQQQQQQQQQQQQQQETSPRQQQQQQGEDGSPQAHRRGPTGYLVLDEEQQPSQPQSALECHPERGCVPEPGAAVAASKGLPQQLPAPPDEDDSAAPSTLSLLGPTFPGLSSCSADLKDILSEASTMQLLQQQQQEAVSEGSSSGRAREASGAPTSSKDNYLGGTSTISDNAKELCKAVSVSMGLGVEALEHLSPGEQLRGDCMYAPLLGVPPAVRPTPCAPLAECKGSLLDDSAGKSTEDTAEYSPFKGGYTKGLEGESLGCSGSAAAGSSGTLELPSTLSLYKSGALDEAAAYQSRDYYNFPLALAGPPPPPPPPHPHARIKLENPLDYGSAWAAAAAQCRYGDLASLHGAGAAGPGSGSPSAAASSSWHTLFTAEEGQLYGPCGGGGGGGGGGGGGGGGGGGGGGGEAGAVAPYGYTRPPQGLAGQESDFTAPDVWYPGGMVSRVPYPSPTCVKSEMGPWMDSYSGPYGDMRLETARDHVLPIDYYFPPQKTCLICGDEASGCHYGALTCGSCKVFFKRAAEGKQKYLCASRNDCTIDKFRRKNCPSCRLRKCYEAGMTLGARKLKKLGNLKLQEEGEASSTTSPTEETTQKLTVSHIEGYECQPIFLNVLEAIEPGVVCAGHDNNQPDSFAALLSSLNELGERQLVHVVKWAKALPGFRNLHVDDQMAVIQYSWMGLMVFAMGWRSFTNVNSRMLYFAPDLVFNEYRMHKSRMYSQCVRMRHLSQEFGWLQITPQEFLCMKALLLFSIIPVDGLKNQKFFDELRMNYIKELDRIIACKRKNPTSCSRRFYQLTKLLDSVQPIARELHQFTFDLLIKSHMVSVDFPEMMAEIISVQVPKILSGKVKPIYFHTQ
Protocol: Competitive AR Binding Assay.
AR binding was measured by a competitive assay against [^3H]-R1881 (PerkinElmer) in transiently transfected COS-1 cells. One day before transfection, COS-1 cells were seeded into 2 ml of DMEM (Dulbecco's modified Eagle medium, Gipco) with 10% dextran-charcoal-treated fetal bovine serum and 0.25% (vol/vol) Penicillin-Streptomysin (Euroclone) at a density of 140×10^3 cells/well. After medium change to DMEM 2.5% FBS, the cells were transfected for 24 hours with 10 ng/well of human AR expression vector pSG5 hAR by using the TransIT method (Micrus Bio TransIT LT1, Transfection Reagent). After 36 hours, the cells where treated with tested compounds using 10000 fold molarities compared to labelled R1881 (1.34 nM). After 2 hours of incubation at 37° C., the medium was removed. The cells were removed from the wells to 150 μl of 1× phosphate buffered saline (PBS), transferred to Eppendorf tubes and centrifuged at 4° C. using 4000×g for 5 min, and then washed twice with 150 μl of PBS. The cell pellets were dissolved to 50 μl of 0.5M NaOH and incubated for 15 min at 56° C., after which the samples (three replicates for each sample compound) were transferred to liquid twinkle tubes with 3 ml of OptiPhase HiSafe 3 twinkle solution (PerkinElmer) and radioactivity of AR-bound [^3H]-R1881 determined. The results were measured with LKB WALLAC 1214 racbeta equipment. The ability of test compounds to bind AR is reported as reduction in bound radioactivity obtained with 1.34 nM [^3H]-R1881.
The results (% inhibition) were calculated as: % inhibition=100−[100×(averagecompound/average[3H]-R1881)].

[2] = target: T1, human AR; assay: AR antagonism assay: inhibition of transcriptional activation of AR (Probasin-luc reporter, COS-1 cells); type: cell-based; conditions: compound 10.0 μM, relative luciferase response: 100% for testosterone (no antiandrogenic effect), 0% for complete antagonism; for remaining activity at 10 µM: COS-1, 18 h, read-out: AR antagonism against 100 nM testosterone ± S.D.
Protocol: Determination of the Antiandrogen Activity.
Testosterone was bought from Sigma Chemical Co. (St. Louis, Mo.) and hydroxyflutamide from Chemos GmbH. One day before transfection, COS-1 cells (from ATCC) were seeded into 1 ml of DMEM (Dulbecco's modified Eagle medium, Gibco) with 10% dextran-charcoal-treated fetal bovine serum and 0.25% (vol/vol) Penicillin-Streptomycin (Euroclone) at a density of 70×10^3 cells/well. After medium change to DMEM 2.5% FBS, the cells were transfected for 24 hours with 10 ng/well of human AR expression vector pSG5-hAR, 100 ng/well of reporter plasmid Probasin-luc, and 10 ng/well of control plasmid pCMV-β-gal by using the TransIT method (Micrus Bio TransIT LT1, Transfection Reagent). After the transfection, the cells received treatment of test compounds giving final concentration of 10 μM for each compound. In the antagonist test the wells were also treated with 100 nM final concentration of testosterone. After 18 hours, the cells were washed, lysed and assayed for luciferase and normalization for β-galactosidase activities and protein concentrations. The cells were washed with 100 μl of cold phosphate buffered saline (PBS) and lysed with 35 μl 1× Reporter lysis Buffer (Promega) and frozen (−70° C.) for 30 minutes. Cell lysates were placed in 1.5-ml propylene tubes and centrifuged at 13200×g for 5 minutes at room temperature. For β-galactosidase assay 10 μl of supernatant from each cell extract was transferred to a 96-well plate (96 well Elisa Microplates, PS, Microcon) and incubated for 10 minutes at 37° C. with 65 μl of reaction mixture consisting 0.76 μl 100×Mg-buffer, 12.5 μl ONPG (4 mg/ml), and 54.3 μl of sodium-phosphate buffer (pH 7). The reaction was stopped with treatment of 125 μl Na2CO3. For luciferase assay 10 μl of the supernatant was transferred to a 96-well plate (Greiner Microlon lumitrac 200) and treated with 30 μl of luciferase assay substrate solution (Promega Luciferase Assay System E1501). For the study of protein concentrations 5 μl of the supernatant was transferred to a 96-well plate (Elisa Microplates, PS, Microcon) and mixed with 200 μl of Bio-rad protein assay reagent. The luciferase activities were measured with Thermo Luminoscan Ascent scanner and the protein concentrations and β-galactosidase activities with Thermo Labsystem Multiscan Ex scanner. Also blank and control samples were measured. During the maintenance, transfection, and treatment with tested compounds the cells were incubated in humidified atmosphere with 5% carbon dioxide at 37° C.

SMILES	AR antagonism against 100 nM testosterone ± S.D. [2] [%]	inhibition at 13.4 µM ([1]; Table 1) [%]	further results
O=[N+]([O-])c1ccc(C2=NOC3CCCC23)cc1C(F)(F)F (single isomer, unassigned) [Example 21a, 3-(4-Nitro-3-trifluoromethyl-phenyl)-4,5,6,6a-tetrahydro-3aH-cyclopenta[d]isoxazole]	–	–	Inhibition of [3H]-R1881 binding at 1.34 nM ± S.D. ([1]; Table 3): 69.7 ± 4.5%; remaining activity at 10 µM [2]: 19.2 ± 6.8%
O=[N+]([O-])c1ccc(C2=NOC3CCCC23)cc1C(F)(F)F (single isomer, unassigned) [Example 21b, 3-(4-Nitro-3-trifluoromethyl-phenyl)-4,5,6,6a-tetrahydro-3aH-cyclopenta[d]isoxazole]	22.9 ± 4.9	–	Inhibition of [3H]-R1881 binding at 1.34 nM ± S.D. ([1]; Table 3): 90.9 ± 0.9%
Clc1ccc(C2=NOC3CCCCC23)cc1 (single isomer, unassigned) [Example 32a, 3-(4-Chloro-phenyl)-3a,4,5,6,7,7a-hexahydro-benzo[d]-isoxazole]	40.9 ± 2.4	–	Inhibition of [3H]-R1881 binding at 1.34 nM ± S.D. ([1]; Table 1): 30.5 ± 5.4%
Clc1ccc(C2=NOC3CCCCC23)cc1 (single isomer, unassigned) [Example 32b, 3-(4-Chloro-phenyl)-3a,4,5,6,7,7a-hexahydro-benzo[d]-isoxazole]	91.4 ± 7.7	–	Inhibition of [3H]-R1881 binding at 1.34 nM ± S.D. ([1]; Table 1): 0%
c1ccc2c(C3=NOC4CCCCC34)cccc2c1 (single isomer, unassigned) [Example 33a, 3-Naphthalen-1-yl-3a,4,5,6,7,7a-hexahydro-benzo[d]-isoxazole]	40.2 ± 7.1	68.4 ± 1.9	–
N#Cc1ccc(C2=NOC3CCCC23)cc1C(F)(F)F (single isomer, unassigned) [Example 85a, 4-(4,5,6,6a-Tetrahydro-3aH-cyclopenta[d]isoxazol-3-yl)-2-trifluoromethyl-benzonitrile]	44.9 ± 3.6	–	inhibition at 13.4 µM ([1]; Table 2): 87.6 ± 0.3%
N#Cc1ccc(C2=NOC3CCCC23)cc1C(F)(F)F (single isomer, unassigned) [Example 85b, 4-(4,5,6,6a-Tetrahydro-3aH-cyclopenta[d]isoxazol-3-yl)-2-trifluoromethyl-benzonitrile]	18.9 ± 0.5	–	Inhibition of [3H]-R1881 binding at 1.34 nM ± S.D. ([1]; Table 2): 91.8 ± 1.7%
COc1ccccc1C1=NOC2CCCCC12 (centres unmarked) [Example 23ab, 3-(2-Methoxy-phenyl)-3a,4,5,6,7,7a-hexahydro-benzo[d]isoxazole]	–	–	remaining activity at 10 µM [2]: 40.9 ± 2.4%
Oc1ccc(C2=NOC3CCCCC23)cc1 (centres unmarked) [Example 26a, 4-(3a,4,5,6,7,7a-Hexahydro-benzo[d]isoxazol-3-yl)-phenol]	–	–	remaining activity at 10 µM [2]: 25.7 ± 5.5%
Oc1ccc(C2=NOC3CCCCC23)cc1 (centres unmarked) [Example 26b, 4-(3a,4,5,6,7,7a-Hexahydro-benzo[d]isoxazol-3-yl)-phenol]	41.0 ± 1.6	–	–
O=[N+]([O-])c1ccc(C2=NOC3CCCCC23)cc1 (centres unmarked) [Example 34ab, 3-(4-Nitro-phenyl)-3a,4,5,6,7,7a-hexahydro-benzo[d]-isoxazole]	–	–	remaining activity at 10 µM [2]: 48 ± 6.7%

Second part, led by results:

AR antagonism against 100 nM testosterone ± S.D. [2] [%]	inhibition at 13.4 µM ([1]; Table 1) [%]	SMILES	further results
100	–	c1ccc2c(C3=NOC4CCCCC34)cccc2c1 (single isomer, unassigned) [Example 33b, 3-Naphthalen-1-yl-3a,4,5,6,7,7a-hexahydro-benzo[d]-isoxazole]	Inhibition of [3H]-R1881 binding at 1.34 nM ± S.D. ([1]; Table 1): 56.9 ± 4.4%
2.9 ± 0.5	94.5 ± 0.5	O=[N+]([O-])c1ccc(C2=NOC3CCCCC23)c(C(F)(F)F)c1 (single isomer, unassigned) [Example 38a, 3-(4-Nitro-2-trifluoromethyl-phenyl)-3a,4,5,6,7,7a-hexahydro-benzo-[d]-isoxazole]	–
75.9 ± 3.7	–	O=[N+]([O-])c1ccc(C2=NOC3CCCCC23)c(C(F)(F)F)c1 (single isomer, unassigned) [Example 38b, 3-(4-Nitro-2-trifluoromethyl-phenyl)-3a,4,5,6,7,7a-hexahydro-benzo-[d]-isoxazole]	Inhibition of [3H]-R1881 binding at 1.34 nM ± S.D. ([1]; Table 1): 90.7 ± 0.5%
–	48.7 ± 3.3	CCCCN1C(CCc2ccccc2)=NOC1(C)Cc1ccccc1 (centres unmarked) [Example 57ab, 5-Benzyl-4-butyl-5-methyl-3-phenethyl-4,5-dihydro-[1,2,4]oxadiazole]	–
–	8.2 ± 1.3	CCCCN1C(CCc2ccc(OC)cc2)=NOC1(C)Cc1ccccc1 (centres unmarked) [Example 58ab, 5-Benzyl-4-butyl-3-[2-(4-methoxy-phenyl)-ethyl]-5-methyl-4,5-dihydro-[1,2,4]oxadiazole]	–
–	39.1 ± 2.6	CCCCN1C(CCCc2ccccc2)=NOC1(C)Cc1ccccc1 (centres unmarked) [Example 59ab, 5-Benzyl-4-butyl-5-methyl-3-(3-phenyl-propyl)-4,5-dihydro-[1,2,4]oxadiazole]	–
–	17.8 ± 2.4	CC(C)CN1C(CCc2ccccc2)=NOC1(C)Cc1ccccc1 (centres unmarked) [Example 66ab, 5-Benzyl-4-isobutyl-5-methyl-3-phenethyl-4,5-dihydro-[1,2,4]oxadiazole]	–
–	14.7 ± 1	CC(C)CN1C(CCCc2ccccc2)=NOC1(C)Cc1ccccc1 (centres unmarked) [Example 68ab, 5-Benzyl-4-isobutyl-5-methyl-3-(3-phenyl-propyl)-4,5-dihydro-[1,2,4]oxadiazole]	–
